Laboratory results published in patent US20250243176A1, “(S)-1-(1-ACRYLOYLPIPERIDIN-3-YL)-2-FLUORO-5,6,7,8,9,10-HEXAHYDROCYCLO HEPTA[B]INDOLE-4-CARBOXAMIDE, AND RELATED CRYSTALLINE FORMS, COMPOSITIONS, AND METHODS THEREOF” (GB005, Inc., priority 2021, published 2025).
In brackets after ≈: the same amount, converted by molar mass. Entries after “also recorded” stand apart in the source; their conditions may differ. One block for each molecule: values may come before it.

Experiments:
Assay type in all cases: physicochemical
[1] = Approximate solubility, solvent addition method, visual assessment
Experimental: The approximate solubility of the initial solid was determined using a solvent addition method via visual assessment of samples.
Values are rounded to nearest whole number and reported as “<” if dissolution was not observed, and as “>” if dissolution occurred after addition of first aliquot.

[2] = Solid-state stability of Form III
Experimental: The solid-state stability of Compound 1, Form III was examined in duplicate (sample 1 and sample 2) for 7 days under the conditions below and the resultant solids analyzed by XRPD: • 40° C./75% relative humidity (open); and • 60° C. (capped).
The solid-state stability of Compound 1, Form III was also examined for 3 months under the conditions below: • 40° C./75% relative humidity; and • 25° C./60% relative humidity

[3] = Solubility testing in bio-relevant media (Form III); conditions: 37° C.; for Solubility / solubility at 1 h: 1 h; for Solubility / solubility at 4 h: 4 h; for Solubility / solubility at 24 h: 24 h; for solubility at 1 h / solubility at 4 h / solubility at 24 h: thermodynamic from solid
Experimental: FaSSIF Buffer Solution: 6 mL 0.2 M NaOH, 388.7 mg of NaH2PO4, and 608.2 mg of NaCl were dissolved and diluted to 100 mL with water. The pH was 6.51. FaSSIF Media: 34.56 mg of SIF powder was dissolved in 15 mL of FaSSIF buffer solution. The solution was stirred and equilibrated at ambient temperature with light protection for 2 hours. SIF powder was purchased from Biorelevant.com.
FeSSIF Buffer Solution: 408.4 mg of NaOH, 868.5 mg of acetic acid, and 1.1802 g of NaCl were dissolved and diluted to 100 mL with water. The pH of the solution was 4.98. FeSSIF Media: 168.42 mg of SIF powder was dissolved in 15 mL of FeSSIF buffer solution. The solution was protected from light.
FaSSGF Buffer Solution: 222 mg of NaCl were dissolved with water, then added 1N HCl adjust the pH to 1.6. […] The solution was stirred and equilibrated at ambient temperature with light protection for 2 hours.
FaSSIF-V2 Buffer Solution: 154.4 mg NaOH, 246.7 mg of maleic acid and 445.6 mg of NaCl were dissolved and diluted to 100 mL with water. The pH was 6.51. FaSSIF-V2 Media: 28.64 mg of FaSSIF-V2 powder (purchased from Biorelevant.com) was dissolved in 8 mL of FaSSIF-V2 buffer solution. The solution was stirred and equilibrated at ambient temperature with light protection for 2 hours.
FeSSIF-V2 Buffer Solution: […] of NaOH, 710 mg of maleic acid, and 814.4 mg of NaCl were dissolved and diluted to 100 mL with water. The pH of the solution was 5.8. FeSSIF-V2 Media: 156.16 mg of FeSSIF-V2 powder was dissolved in 8 mL of FeSSIF-V2 buffer solution. The solution was protected from light.
Samples were prepared in duplicate for each medium. The suspensions were shaken at 37° C. for up to 24 hours.

[4] = Grinding (mechanical treatment) of Form III
Experimental: Polymorph screening of Compound 1 was conducted using various crystallization methods, including slurry, cooling and evaporative crystallization, anti-solvent precipitation, thermal and mechanical treatment.

[5] = Dynamic vapor sorption (DVS)
Experimental: Moisture sorption/desorption data was collected on a Vsorp Dynamic Moisture Sorption Analyzer (ProUmid GmbH & Co. KG, Germany). The sample was placed into a tared sample chamber and automatically weighed. • Sample temperature 25° C. • Cycle: Full cycle • Adsorption 0, 10, 20, 30, 40, 50, 60, 70, 80, 90 • Desorption 80, 70, 60, 50, 40, 30, 20, 10, 0

[6] = Competition slurry / inter-conversion study of Form I and Form III; conditions: competition slurry of Form I and Form III in water and heptane; RT to 80° C.
Experimental: Equal amounts of Form I and Form III were mixed in water and heptane to form slurries and stirred at RT (˜25° C.) or 80° C.

- Solubility ([1]; 1,4-dioxane): ~20000 µg/mL (≈ 52200 µM)
- Solubility ([1]; 1,4-dioxane, organic solvent or mixture, thermodynamic from solid, 1,4-dioxane, read-out: Solubility): > 20000 µg/mL
- Solubility ([1]; 2-butanone (MEK), organic solvent or mixture, thermodynamic from solid, 2-Butanone (MEK), read-out: Solubility): ~8300 µg/mL (≈ 21600 µM)
- Solubility ([1]; 2-propanol (IPA), organic solvent or mixture, thermodynamic from solid, 2-Propanol (IPA), read-out: Solubility): ~4200 µg/mL (≈ 11000 µM)
- Solubility ([1]; Dimethyl sulfoxide (DMSO)): >250000 µg/mL
- Solubility ([1]; Tetrahydrofuran (THF)): ~25000 µg/mL (≈ 65200 µM)
- Solubility ([1]; Water): <600 µg/mL
- Solubility ([1]; acetone, organic solvent or mixture, thermodynamic from solid, Acetone, read-out: Solubility): ~7100 µg/mL (≈ 18500 µM)
- Solubility ([1]; acetonitrile, organic solvent or mixture, thermodynamic from solid, Acetonitrile, read-out: Solubility): ~1700 µg/mL (≈ 4430 µM)
- Solubility ([1]; dimethyl sulfoxide (DMSO), organic solvent or mixture, thermodynamic from solid, Dimethyl sulfoxide (DMSO), read-out: Solubility): > 250000 µg/mL
- Solubility ([1]; ethanol, organic solvent or mixture, thermodynamic from solid, Ethanol, read-out: Solubility): ~5000 µg/mL (≈ 13000 µM)
- Solubility ([1]; ethyl acetate, organic solvent or mixture, thermodynamic from solid, Ethyl acetate, read-out: Solubility): ~2000 µg/mL (≈ 5220 µM)
- Solubility ([1]; isopropyl acetate, organic solvent or mixture, thermodynamic from solid, Isopropyl acetate, read-out: Solubility): ~1500 µg/mL (≈ 3910 µM)
- Solubility ([1]; methanol, organic solvent or mixture, thermodynamic from solid, Methanol, read-out: Solubility): ~7100 µg/mL (≈ 18500 µM)
- Solubility ([1]; n-Heptane): <600 µg/mL
- Solubility ([1]; n-butanol (NBA), organic solvent or mixture, thermodynamic from solid, n-Butanol (NBA), read-out: Solubility): ~2300 µg/mL (≈ 6000 µM)
- Solubility ([1]; n-heptane, organic solvent or mixture, thermodynamic from solid, n-Heptane, read-out: Solubility): < 600 µg/mL
- Solubility ([1]; tetrahydrofuran (THF), organic solvent or mixture, thermodynamic from solid, Tetrahydrofuran (THF), read-out: Solubility): > 20000 µg/mL
- Solubility ([1]; toluene, organic solvent or mixture, thermodynamic from solid, Toluene, read-out: Solubility): ~1300 µg/mL (≈ 3390 µM)
- Solubility ([1]; water, thermodynamic from solid, Water, read-out: Solubility): < 600 µg/mL
Structure (SMILES): C=CC(=O)N1CCC[C@@H](c2c(F)cc(C(N)=O)c3[nH]c4c(c23)CCCCC4)C1 [starting material, (S)-1-(1-acryloylpiperidin-3-yl)-2-fluoro-5,6,7,8,9,10-hexahydrocyclohepta[b]indole-4-carboxamide]

- solid-state stability ([2]; 3 months, 40° C./75% relative humidity and 25° C./60% relative humidity): stable
- solid-state stability ([2]; 7 days, 40° C./75% relative humidity (open) and 60° C. (capped)): chemically and physically stable
- Solubility ([3]; FaSSGF, pH 1.6, pH at 24 h 1.7): <LOQ
- Solubility ([3]; pH 5.8 Buffer, pH at 24 h 5.8): <LOQ
- Solubility ([3]; pH 6.5 Buffer, pH at 24 h 6.6): <LOQ
- solubility at 1 h ([3]; FaSSIF, pH 6.5): 6 µg/mL (≈ 15.6 µM)
- solubility at 4 h ([3]; FaSSIF, pH 6.5): 5 µg/mL (≈ 13 µM)
- solubility at 24 h ([3]; FaSSIF, pH 6.5, pH at 24 h 6.5): 7 µg/mL (≈ 18.3 µM)
- solubility at 1 h ([3]; FaSSIF-V2, pH 6.5): 4 µg/mL (≈ 10.4 µM)
- solubility at 4 h ([3]; FaSSIF-V2, pH 6.5): 4 µg/mL (≈ 10.4 µM)
- solubility at 24 h ([3]; FaSSIF-V2, pH 6.5, pH at 24 h 6.6): 4 µg/mL (≈ 10.4 µM)
- solubility at 1 h ([3]; FeSSIF, pH 5.0): 73 µg/mL (≈ 190 µM)
- solubility at 4 h ([3]; FeSSIF, pH 5.0): 75 µg/mL (≈ 196 µM)
- solubility at 24 h ([3]; FeSSIF, pH 5.0, pH at 24 h 5.0): 90 µg/mL (≈ 235 µM)
- solubility at 1 h ([3]; FeSSIF-V2, pH 5.8): 120 µg/mL (≈ 313 µM)
- solubility at 4 h ([3]; FeSSIF-V2, pH 5.8): 200 µg/mL (≈ 522 µM)
- solubility at 24 h ([3]; FeSSIF-V2, pH 5.8, pH at 24 h 5.9): 180 µg/mL (≈ 469 µM)
- crystal form after grinding [4]: remained unchanged
- crystallinity after grinding [4]: decreased slightly
- hygroscopicity ([5]; DVS): non-hygroscopic
- crystal Form after DVS testing ([5]; XRPD before and after DVS): remained unchanged
- weight gain (DVS) ([5]; up to 90% RH, 25° C.): < 0.5%
Structure (SMILES): C=CC(=O)N1CCC[C@@H](c2c(F)cc(C(N)=O)c3[nH]c4c(c23)CCCCC4)C1 [Form III, (S)-1-(1-acryloylpiperidin-3-yl)-2-fluoro-5,6,7,8,9,10-hexahydrocyclohepta[b]indole-4-carboxamide]
- relative stability of crystal forms [6]: most stable Form; also recorded: more stable than Form I
